From US20210230203A1, “Amphiphilic Kanamycin Compositions and Methods” (priority 2020, published 2021)
Converted amounts (≈) assume the structure as drawn.

Columns and labels:
Scedosporium = assay: MIC against various species, CLSI M27 & M38 (Table 4); conditions: 24-72 hours
E. coli (25922) = assay: MIC against bacterial strains; type: cell-based
Candida auris = assay: MIC against yeast, CLSI M27 & M38 (Table 2); conditions: 24-72 hours
P. variatii = assay: MIC against filamentous and dimorphic fungi, CLSI M27 & M38 (Table 3); type: cell-based, Paecilomyces variotii; conditions: P. variatii MYA-3630, RPMI 0.165M MOPS, 24-72 hours
C. krusei = assay: MIC against various species, CLSI M27 & M38 (Table 4); conditions: C. krusei AC ATCC 6258; Table 4; RPMI 0.165M MOPS; 24-72 hours
C. auris = assay: as above; conditions: 24-72 hours
Candida parapsilosis = assay: MIC against yeast, CLSI M27 & M38 (Table 2); conditions: Table 2, RPMI 0.165M MOPS, 24-72 hours
[1] = Scedosporium SA1, RPMI 0.165M MOPS
[2] = Scedosporium SB1, RPMI 0.165M MOPS
[3] = Candida auris CAU1, RPMI 0.165M MOPS
[4] = Candida auris CAU2, RPMI 0.165M MOPS
[5] = Candida auris CAU3, RPMI 0.165M MOPS
[6] = Candida auris CAU4, RPMI 0.165M MOPS
[7] = Candida auris CAU5, RPMI 0.165M MOPS
[8] = Candida auris CAU6, RPMI 0.165M MOPS
[9] = Candida auris CAU7, RPMI 0.165M MOPS
[10] = Candida auris DI17-46, RPMI 0.165M MOPS
[11] = Candida auris DI17-47, RPMI 0.165M MOPS
[12] = Candida auris DI17-48, RPMI 0.165M MOPS
[13] = C. auris DI17-46, RPMI 0.165M MOPS
[14] = C. auris DI17-47, RPMI 0.165M MOPS
[15] = C. auris DI17-48, RPMI 0.165M MOPS

CCCCCCCCCCCCCCCC(=O)NC[C@H]1O[C@H](O[C@H]2[C@H](O)[C@@H](O[C@H]3O[C@H](CO)[C@@H](O)[C@H](N)[C@H]3O)[C@H](N)C[C@@H]2N)[C@H](O)[C@@H](O)[C@@H]1O [KI06]
Minimum inhibitory concentration 50% (Scedosporium; [1]): 2 µg/mL (≈ 2.77 µM)
Minimum inhibitory concentration 100% (Scedosporium; [1]): 4 µg/mL (≈ 5.53 µM)
Minimum inhibitory concentration 50% (Scedosporium; [2]): 1 µg/mL (≈ 1.38 µM)
Minimum inhibitory concentration 100% (Scedosporium; [2]): 8 µg/mL (≈ 11.1 µM)
Minimum inhibitory concentration (E. coli (25922)): 32 µg/mL (≈ 44.3 µM)
Minimum inhibitory concentration 50% (Candida auris; [3]): 4 µg/mL (≈ 5.53 µM)
Minimum inhibitory concentration 100% (Candida auris; [3]): 8 µg/mL (≈ 11.1 µM)
Minimum inhibitory concentration 50% (Candida auris; [4]): 4 µg/mL (≈ 5.53 µM)
Minimum inhibitory concentration 100% (Candida auris; [4]): 8 µg/mL (≈ 11.1 µM)
Minimum inhibitory concentration 50% (Candida auris; [5]): 4 µg/mL (≈ 5.53 µM)
Minimum inhibitory concentration 100% (Candida auris; [5]): 8 µg/mL (≈ 11.1 µM)
Minimum inhibitory concentration 50% (Candida auris; [6]): 8 µg/mL (≈ 11.1 µM)
Minimum inhibitory concentration 100% (Candida auris; [6]): 8 µg/mL (≈ 11.1 µM)
Minimum inhibitory concentration 50% (Candida auris; [7]): 8 µg/mL (≈ 11.1 µM)
Minimum inhibitory concentration 100% (Candida auris; [7]): 8 µg/mL (≈ 11.1 µM)
Minimum inhibitory concentration 50% (Candida auris; [8]): 4 µg/mL (≈ 5.53 µM)
Minimum inhibitory concentration 100% (Candida auris; [8]): 8 µg/mL (≈ 11.1 µM)
Minimum inhibitory concentration 50% (Candida auris; [9]): 4 µg/mL (≈ 5.53 µM)
Minimum inhibitory concentration 100% (Candida auris; [9]): 8 µg/mL (≈ 11.1 µM)
Minimum inhibitory concentration 50% (Candida auris; [10]): 8 µg/mL (≈ 11.1 µM)
Minimum inhibitory concentration 100% (Candida auris; [10]): 8 µg/mL (≈ 11.1 µM)
Minimum inhibitory concentration 50% (Candida auris; [11]): 8 µg/mL (≈ 11.1 µM)
Minimum inhibitory concentration 100% (Candida auris; [11]): 8 µg/mL (≈ 11.1 µM)
Minimum inhibitory concentration 50% (Candida auris; [12]): 4 µg/mL (≈ 5.53 µM)
Minimum inhibitory concentration 100% (Candida auris; [12]): 8 µg/mL (≈ 11.1 µM)
Minimum inhibitory concentration 50% (P. variatii): 8 µg/mL (≈ 11.1 µM)
Minimum inhibitory concentration 100% (P. variatii): 16 µg/mL (≈ 22.1 µM)
Minimum inhibitory concentration 50% (C. krusei): 4 µg/mL (≈ 5.53 µM)
Minimum inhibitory concentration 100% (C. krusei): 8 µg/mL (≈ 11.1 µM)
Minimum inhibitory concentration 50% (C. auris; [13]): 4 µg/mL (≈ 5.53 µM)
Minimum inhibitory concentration 100% (C. auris; [13]): 8 µg/mL (≈ 11.1 µM)
Minimum inhibitory concentration 50% (C. auris; [14]): 2 µg/mL (≈ 2.77 µM)
Minimum inhibitory concentration 100% (C. auris; [14]): 4 µg/mL (≈ 5.53 µM)
Minimum inhibitory concentration 50% (C. auris; [15]): 1 µg/mL (≈ 1.38 µM)
Minimum inhibitory concentration 100% (C. auris; [15]): 4 µg/mL (≈ 5.53 µM)
Minimum inhibitory concentration 50% (Candida parapsilosis; C. parapsilosis ATCC 22019): 4 µg/mL (≈ 5.53 µM)
Minimum inhibitory concentration 100% (Candida parapsilosis; C. parapsilosis ATCC 22019): 8 µg/mL (≈ 11.1 µM)
Minimum inhibitory concentration 50% (Candida parapsilosis; Candida parapsilosis CP1): 4 µg/mL (≈ 5.53 µM)
Minimum inhibitory concentration 100% (Candida parapsilosis; Candida parapsilosis CP1): 8 µg/mL (≈ 11.1 µM)
Minimum inhibitory concentration 50% (Candida parapsilosis; Candida parapsilosis CP2): 4 µg/mL (≈ 5.53 µM)
Minimum inhibitory concentration 100% (Candida parapsilosis; Candida parapsilosis CP2): 8 µg/mL (≈ 11.1 µM)
Minimum inhibitory concentration 50% (Candida parapsilosis; Candida parapsilosis CP3): 8 µg/mL (≈ 11.1 µM)
Minimum inhibitory concentration 100% (Candida parapsilosis; Candida parapsilosis CP3): 16 µg/mL (≈ 22.1 µM)
